Source: patent publication US20210186989A1, “ENHANCED TRAINED IMMUNITY IN MYELOID CELLS BY SHIP-1 INHIBITION” (CENTRO NACIONAL DE INVESTIGACIONES CARDIOVASCULARES CARLOS …, priority 2018, published 2021)

What was measured:
[1] = biological target: T1, SHIP-1 (Homo sapiens, UniProt Q92835); settings: SHIP-1 inhibitor 3AC; value given in parentheses, no test described; cited from earlier work
T1 sequence (Q92835 1-1189): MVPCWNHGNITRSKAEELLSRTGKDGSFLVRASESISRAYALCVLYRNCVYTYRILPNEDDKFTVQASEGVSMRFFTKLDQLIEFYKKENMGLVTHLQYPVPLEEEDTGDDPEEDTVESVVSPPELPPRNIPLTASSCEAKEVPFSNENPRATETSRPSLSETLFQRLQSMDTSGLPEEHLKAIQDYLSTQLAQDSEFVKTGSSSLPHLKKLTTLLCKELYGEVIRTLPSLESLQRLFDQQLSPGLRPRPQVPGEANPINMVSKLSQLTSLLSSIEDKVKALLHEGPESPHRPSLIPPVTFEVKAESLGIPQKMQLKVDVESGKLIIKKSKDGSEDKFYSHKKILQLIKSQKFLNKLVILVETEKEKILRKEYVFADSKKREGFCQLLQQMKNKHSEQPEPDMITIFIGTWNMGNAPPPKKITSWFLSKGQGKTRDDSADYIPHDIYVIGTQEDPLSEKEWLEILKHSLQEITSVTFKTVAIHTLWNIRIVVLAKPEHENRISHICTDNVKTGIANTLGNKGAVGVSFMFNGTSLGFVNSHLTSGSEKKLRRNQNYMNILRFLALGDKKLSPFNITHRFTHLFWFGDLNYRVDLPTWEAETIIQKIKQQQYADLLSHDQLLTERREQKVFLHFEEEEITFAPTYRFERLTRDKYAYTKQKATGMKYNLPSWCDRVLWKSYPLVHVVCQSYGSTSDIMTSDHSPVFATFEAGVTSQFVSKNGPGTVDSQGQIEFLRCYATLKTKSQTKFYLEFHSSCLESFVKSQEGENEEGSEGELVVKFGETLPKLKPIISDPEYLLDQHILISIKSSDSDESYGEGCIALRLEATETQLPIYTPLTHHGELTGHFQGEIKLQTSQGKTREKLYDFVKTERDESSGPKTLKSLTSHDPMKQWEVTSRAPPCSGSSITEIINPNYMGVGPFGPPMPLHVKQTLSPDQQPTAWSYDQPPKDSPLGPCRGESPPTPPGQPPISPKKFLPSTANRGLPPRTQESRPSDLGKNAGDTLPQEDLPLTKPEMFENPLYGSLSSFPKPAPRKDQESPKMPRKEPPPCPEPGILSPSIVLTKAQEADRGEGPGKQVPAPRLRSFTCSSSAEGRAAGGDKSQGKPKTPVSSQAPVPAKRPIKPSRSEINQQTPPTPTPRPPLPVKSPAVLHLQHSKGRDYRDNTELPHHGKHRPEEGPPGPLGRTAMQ

[2] = test system: mouse bone marrow-derived macrophages (BMDMs); assay: Trained immunity in vitro model, TNFα by ELISA after LPS; assay type: cell-based; settings: for boost of trained immunity (TNF alpha) in absence of SHIP-1: LysMΔSHIP-1 BMDMs, beta-glucan-trained, 30 min pre-incubation; for TNF-alpha overproduction in trained LysMΔSHIP-1 BMDMs: 30 min pre-incubation before beta-glucan training
Method: BMDMs (10^5) were plated in 96-well plates (200-μl final volume, Corning) and stimulated with R10 or 100 μg/ml β-glucan (whole glucan particles, WGP, Biothera, Eagan, Minn.) for 24h. Then, cells were washed and rested 3 days in culture medium. At day 4, BMDMs were washed again and primed with 25 ng/ml IFNγ (BD Biosciences, San Jose, Calif.) for 24h. On day 5, a final wash was performed and cells were stimulated with R10 or 1 μg/ml Escherichia coli LPS (EK, Invivogen, San Diego, Calif.). After 24h, supernatants were collected for TNFα measurement by ELISA (Opteia ELISA kit, BD Biosciences).
When required, BMDMs were pre-incubated for 30 minutes prior to β-glucan training with 1.5 μM Syk inhibitor (R406, Hozel diagnostic, Cologne, Germany), […] Raf-1 inhibitor (GW5074, Sigma), 500 μM MTA (5′-Deoxy-5′-(methylthio)adenosine, Sigma), 6 μM Pargyline (Sigma) or SHIP-1 inhibitor (SHIPi, 3-α-aminocholestane, 3AC, Calbiochem, Darmstad, Germany) at the indicated doses. Inhibitors were also added in the first wash-out, before the resting period.
(§1) For TNFα normalization, the fold of cells in each condition was calculated as follows: (Live cell number in condition X)/(live cell number in non-trained WT condition). In case of SHIP-1 inhibition experiments, non-treated cells were used as reference. Thus, TNFα per cell number was normalized as (absolute TNFα value)/(fold of cells).

[3] = test system: Candida albicans SC5314; assay: In vivo training followed by lethal systemic Candida albicans infection, survival; design: species or system mouse; settings: 0.11 mg 3AC i.p. days -8 and -7, lethal 2·10^6 C. albicans i.v.
Method: Mice were trained with either two intraperitoneal (i.p.) injections of 1 mg β-glucan particles on days −7 and −4 or 2·10^4 Candida albicans intravenously (i.v) on day −7. Sterile PBS was used as control. One week later, mice were challenged with 5 μg E. coli LPS (serotype 055:B5, Sigma) i.p. and blood was collected 60 min later to assess the serum TNFα (Mouse TNFα DuoSet, R&D Systems). Alternatively, mice were lethally infected with 2·10^6 C. albicans i.v. and monitored daily for weight, general health and survival, following the institutional guidance. When required mice were i.p. treated with 0.11 mg 3AC on days −8 and −7.3AC was diluted in PBS 0.3% hydroxypropylcellulose (Sigma), used as control.

[4] = test system: human peripheral blood mononuclear cells (PBMCs); assay: Trained immunity in vitro model in human PBMCs, TNFα by ELISA after LPS; assay type: cell-based; settings: beta-glucan-trained human PBMCs, 10 μM 3AC, LPS stimulation
Method: Total PBMCs (5·10^5) were plated in 96-well plates (200-μl final volume) and stimulated with 100 μg/ml β-glucan for 24h. Then, cells were washed and rested 6 days in culture medium. At day 7, PBMCs were stimulated with 1 μg/ml LPS (EK). After 24h, supernatants were collected for TNFα measurement by ELISA (Human TNFα DuoSet, R&D Systems, Abingdon, UK). When required, PBMCs were pre-incubated for 30 minutes prior to β-glucan training with 10 μM 3AC. Inhibitor was also added together with the first wash-out, before the resting period.
as §1

[5] = test system: mouse BMDMs; assay: BMDM viability in the training scheme (FACS, Hoechst 33258 exclusion); assay type: cell-based
Method: To assess receptor expression and cell viability, 6·10^5 BMDMs were plated in non-treated 24-well plates (1200-μl final volume, Corning) and followed the training scheme described above. Dectin-1 expression was evaluated at day 0 prior to β-glucan addition. Cell viability and TLR4 expression were assessed on day 5 before LPS stimulation. At indicated times, cells were collected in PBS/EDTA and stained on ice-cold FACS Buffer (PBS/EDTA plus 3% FBS) for flow cytometry analysis.
Samples were stained with the appropriate antibody cocktails in ice-cold FACS Buffer at 4° C. for 15 minutes. Antibodies included mouse PE-anti-TLR4 (BioLegend, San Diego, Calif.) and APC-anti-Dectin-1 (Bio-Rad). Dead cells were excluded by Hoechst 33258 (Invitrogen, Carlsbad, Calif.) incorporation. Purified anti-FcγRIII/II (2.4G2, TONBO Bioscience, San Diego, Calif.) was used to block murine Fc-receptors at 4° C. for 10 minutes in all the stainings. Events were acquired using FACSCanto 3L (BD Biosciences). Data were analyzed with FlowJo software (Tree Star, Ashland, Oreg.).

[6] = test system: human PBMCs; assay: Viability of cells in human PBMC training scheme; assay type: cell-based; settings: non-trained cells in human PBMC experiment (not shown)
Method: To assess cell viability, 3·10^6 total PBMCs were plated in 24-well plates (1200-μl final volume, Corning) and followed the training scheme described here. At day 7, prior to LPS stimulation, cells were collected in PBS/EDTA and stained on ice-cold FACS Buffer for flow cytometry analysis.

## CC(C)CCC[C@@H](C)[C@H]1CC[C@H]2[C@@H]3CC[C@H]4C[C@H](N)CC[C@]4(C)[C@H]3CC[C@]12C [3AC, 3α-aminocholestane]
[1]
  IC50: 13.5 µM
[2]; beta-glucan-trained BMDMs, different doses of 3AC 30 min before training and after wash-out, LPS challenge
  TNF-alpha production in supernatants: boosted TNF-alpha production in a dose-dependent manner
[3]
  survival of non-trained mice: did not impact on the survival
[3]; training 2·10^4 C. albicans i.v. day -7
  survival of Candida-trained mice: improved the survival
[4]
  TNF-alpha production in supernatants: boosted TNF-alpha production
[5]; 5 day-long in vitro culture in the presence of 3AC
  survival of non-trained BMDMs: did not survive
[5]; beta-glucan-trained, in the presence of 3AC
  survival of trained BMDMs: did not affect survival
[6]
  toxicity for non-trained cells: toxic

## O=C1Nc2ccc(I)cc2/C1=C/c1cc(Br)c(O)c(Br)c1 [GW5074]
[2]
  boost of trained immunity (TNF alpha) in absence of SHIP-1: did not affect this process

## CSC[C@H]1O[C@@H](n2cnc3c(N)ncnc32)[C@H](O)[C@@H]1O [MTA, 5′-Deoxy-5′-(methylthio)adenosine]
[2]; 500 μM
  TNF-alpha overproduction in trained LysMΔSHIP-1 BMDMs: inhibited the increase in TNF-alpha

## COc1cc(Nc2ncc(F)c(Nc3ccc4c(n3)NC(=O)C(C)(C)O4)n2)cc(OC)c1OC [R406]
[2]; 1.5 μM
  boost of trained immunity (TNF alpha) in absence of SHIP-1: abolished the boost of trained immunity

## C#CCN(C)Cc1ccccc1 [pargyline, Pargyline]
[2]; 6 μM
  TNF-alpha overproduction in trained LysMΔSHIP-1 BMDMs: had no effect
